# Experimental data taken from article PMC6689975, “Novel Cell Wall Antifungals Reveal a Special Synergistic Activity in pbr1 Mutants Resistant to the Glucan Synthesis Antifungals Papulacandins and Echinocandins” (Frontiers in Microbiology, 2019).
# Like-named read-outs stand apart in the source and are kept apart here.
# Key:
# Test in all cases: microbe, parasite or virus in culture
# [1] = tested on: T1, S. cerevisiae wild-type CVX12-3A; parameters: species or system whole yeast cells; macro tube broth dilution MIC in YEPD at 30 C, visual clearness of medium; details: Saccharomyces cerevisiae, 48 h
# T1 construct: CVX12-3A
# Description: (§1) Standard YEPD (Yeast Extract, Peptone, Dextrose) ([Sherman, 1990]), YEPD+S (YEPD with 1.2M sorbitol), YES (Yeast Extract, Dextrose and Supplements of Adenine, Histidine, Leucine, Uracil and Lysine) ([Alfa et al., 1993]) and YES+S (YES with 1.2 M sorbitol) ([Ribas et al., 1991]; [Ishiguro et al., 1997]), media were used for determination of MIC values of the tested compounds. A stock solution of 10 mg/ml of each tested compounds was prepared in DMSO and serial dilutions in DMSO were prepared. The final concentration of DMSO was 2% in the YEPD medium. […] The serial dilutions of compounds were dispensed into test tubes with 1 ml of YEPD or YEPD+S to make final concentrations of 200, 100, 50, 25, 12.5, 6.26, 3.125, 1.6, 0.8 and 0.4 μg/ml. The tested yeast strains were previously grown in YEPD, YEPD+S, YES or YES+S agar plates at 30°C for 48 h. For inoculation of YEPD or YEPD+S macro test tubes a suspension of tested fungus was produced with 10^5 cfu/ml (cfu - colony forming unit). 10 μl of suspension was used for inoculation of each tube. After 48 h incubation at 30°C the tubes were checked. The MIC value is the lowest concentration of the tested compound that could inhibit the fungal growth and the medium remained clear. From each tube 10 μl culture was plated on YEPD agar medium to check the contamination. The MIC tests were carried out in three parallels. The screening of the first generation of isochromanones was carried out in YEPD and YEPD+S media (1E-16E). The fungal strains analyzed are: C. albicans wild-type ATCC 26555, SC5314 and ATCC 90028, S. cerevisiae wild-type CVX12-3A and pbr1-1 mutant, and S. pombe wild-type (972h^–), pbr1-8 mutant and pbr1-6 mutant. The bold numbers in Tables 4–6 indicate the more efficient compounds. […] The weak or moderate efficacy against the C. albicans wild-type strains was observed by some substances (3E, 4Z, 5Z, 10E, 15, and 16E). The efficiency toward the S. pombe pbr1-6 mutant strain was the highest inhibitory activity, except 7E, 11E, 12 and 14E. […] As regards the other S. pombe pbr1-8 mutant strain, the antifungal activity of the tested compounds was slightly lower, but the substances with the best activity are partly identical to the best compounds mentioned with pbr1-6, (i.e., 1E, 3E, 4Z, 5Z).
# [2] = tested on: T2, S. pombe wild-type 972 h-; parameters: species or system whole yeast cells; macro tube broth dilution MIC in YEPD at 30 C, visual clearness of medium; details: Schizosaccharomyces pombe, 48 h
# T2 construct: 972 h-
# Description: as §1
# [3] = tested on: Candida albicans C. a.^f (Table 4); parameters: species or system yeast; tube dilution MIC in YEPD (± 1.2 M sorbitol), complete growth inhibition by turbidity; details: 48 h, YEPD + 1.2 M sorbitol
# Description: (§2) Standard YEPD (Yeast Extract, Peptone, Dextrose) ([Sherman, 1990]), YEPD+S (YEPD with 1.2M sorbitol), YES (Yeast Extract, Dextrose and Supplements of Adenine, Histidine, Leucine, Uracil and Lysine) ([Alfa et al., 1993]) and YES+S (YES with 1.2 M sorbitol) ([Ribas et al., 1991]; [Ishiguro et al., 1997]), media were used for determination of MIC values of the tested compounds. A stock solution of 10 mg/ml of each tested compounds was prepared in DMSO and serial dilutions in DMSO were prepared. The final concentration of DMSO was 2% in the YEPD medium. […] The serial dilutions of compounds were dispensed into test tubes with 1 ml of YEPD or YEPD+S to make final concentrations of 200, 100, 50, 25, 12.5, 6.26, 3.125, 1.6, 0.8 and 0.4 μg/ml. The tested yeast strains were previously grown in YEPD, YEPD+S, YES or YES+S agar plates at 30°C for 48 h. For inoculation of YEPD or YEPD+S macro test tubes a suspension of tested fungus was produced with 10^5 cfu/ml (cfu - colony forming unit). 10 μl of suspension was used for inoculation of each tube. After 48 h incubation at 30°C the tubes were checked. The MIC value is the lowest concentration of the tested compound that could inhibit the fungal growth and the medium remained clear. From each tube 10 μl culture was plated on YEPD agar medium to check the contamination. The MIC tests were carried out in three parallels. Micro-culture assays of large numbers of samples were analyzed as described) ([Martins et al., 2011]). Essentially early log-phase cells were grown in YEPD, YEPD+S, YES or YES+S (1.2 M sorbitol) medium at 30°C, and diluted to cell density of 4 X 10^6 cells/ml in YEPD, YEPD+S, YES or YES+S medium and aliquots of 100 μl were dispensed into each small test tube (3 ml test tube size). Then, another 100 μl of YEPD, YEPD+S, YES or YES+S with the corresponding dilution of each compound at 2X concentration (4% DMSO) was added. The final volume was 200 μl, with the cells diluted to of 2 X 10^6 cells/ml and each compound diluted to 1X final concentration, containing increasing concentrations of antifungal (0, 1, 2, 5, 10, 20, 50, 100 and 200 μg/ml) or an equivalent volume of solvent (2% DMSO). The cells were grown at 30°C in an orbital roller and turbidity was analyzed after 24 and 48 h of incubation. The MIC was determined as the minimal concentration of tested compound that produced complete cell growth inhibition and kept the medium clear. The MIC values were calculated from at least three independent experiments.
# [4] = tested on: Candida albicans C. a.^g (Table 4); parameters: species or system yeast; tube dilution MIC in YEPD (± 1.2 M sorbitol), complete growth inhibition by turbidity; details: 48 h, YEPD + 1.2 M sorbitol
# Description: as §2
# [5] = tested on: Candida albicans C. a.^h (Table 4); parameters: species or system yeast; tube dilution MIC in YEPD (± 1.2 M sorbitol), complete growth inhibition by turbidity; details: 48 h, YEPD + 1.2 M sorbitol
# Description: as §2
# [6] = tested on: T3, Saccharomyces cerevisiae S. c.^d (wild-type CVX12-3A); parameters: species or system yeast; tube dilution MIC in YEPD (± 1.2 M sorbitol), complete growth inhibition by turbidity; details: 48 h, YEPD + 1.2 M sorbitol
# T3 construct: CVX12-3A
# Description: as §2
# [7] = tested on: T4, Schizosaccharomyces pombe S. p.^a (wild-type 972 h-); parameters: species or system yeast; tube dilution MIC in YEPD (± 1.2 M sorbitol), complete growth inhibition by turbidity; details: 48 h, YEPD + 1.2 M sorbitol
# T4 construct: 972 h-
# Description: as §2
Compound,MIC ([1]; read-out: MIC) [µg/mL],MIC ([2]; read-out: MIC) [µg/mL],MIC ([1]; YEPD medium) [µg/mL],MIC ([2]; YEPD medium) [µg/mL],MIC [3] [µg/mL],MIC [4] [µg/mL],MIC [5] [µg/mL],MIC [6] [µg/mL],MIC [7] [µg/mL]
CC[C@H](C)C[C@H](C)CCCCCCCCC(=O)N[C@H]1C[C@@H](O)[C@@H](NCCN)NC(=O)[C@@H]2[C@@H](O)CCN2C(=O)[C@H]([C@H](O)CCN)NC(=O)[C@H]([C@H](O)[C@@H](O)c2ccc(O)cc2)NC(=O)[C@@H]2C[C@@H](O)CN2C(=O)[C@H]([C@@H](C)O)NC1=O [caspofungin],1,5,,,,,,,
O=c1oc2ccc3ccccc3c2cc1-c1ccccc1CO [compound 12],,,100,200,100,200,100,50,50
O=c1oc2ccccc2cc1-c1ccccc1CO [compound 15],,,50,100,25,> 200,> 200,100,200
